The values that follow are results of earlier work, collected in US7973084B2, “Molecular transporters based on alditol or inositol and processes for the preparation thereof” (Postech Academy-Industrial Foundation, priority 2005, dated 2011).

The data set deals with Jurkat cells.

For D-arginine nonamer, the “uptake by Jurkat cells” value (determined using FACS) is recorded as “much more effective”.
As for L-arginine nonamer, the “effectiveness in the transportation across a biological membrane relative to Tat protein (49-57 a.a.)” value (compared with Tat protein (49-57 a.a.)) was 20 times.
